Where a name gives a salt, the structure may show the parent alone.
Experiments:
[1] = molecular target: T1, NLRP3 (Homo sapiens, UniProt Q96P20); assay: Human whole blood IL1β release assay (LPS + nigericin, AlphaLisa IL-1β; HWB IC50); format: cell-based; set-up: Human whole blood in Li-heparin tubes was obtained from healthy donors from a volunteer donor panel; from tissue; host or cells: human whole blood from healthy donors; details: IL-1β release
Method: For systemic delivery, the ability to inhibit NLRP3 when the compounds are present within the bloodstream is of great importance. For this reason, the NLRP3 inhibitory activity of a number of compounds in human whole blood was investigated in accordance with the following protocol.
Human whole blood in Li-heparin tubes was obtained from healthy donors from a volunteer donor panel. • 1. Plate out 80 μl of whole blood containing 1 μg/ml of LPS in 96-well, clear bottom cell culture plate (Corning #3585) • 2. Add 10 μl compound (8 points half-log dilution with 10 μM top dose) or vehicle (DMSO 0.1% FAC) to the appropriate wells • 3. Incubate for 3 hrs at 37° C., 5% CO2 • 4. Add 10 μl nigericin (Sigma #N7143) (10 μM FAC) to all wells • 5. Incubate for 1 hr at 37° C., 5% CO2 • 6. At the end of the incubation period, spin plates at 300×g for 5 mins to pellet cells and remove 20 μl of supernatant and add to 96-well v-bottom plates for IL-1β analysis (note: these plates containing the supernatants can be stored at −80° C. to be analysed at a later date) • 7. IL-1β was measured according to the manufacturer protocol (Perkin Elmer-AlphaLisa IL-1 Kit AL220F-5000) • 8. IC50 data is fitted to a non-linear regression equation (log inhibitor vs response-variable slope 4-parameters)

[2] = molecular target: T1, NLRP3; assay: THP-1 cells pyroptosis assay (LPS + nigericin, resazurin readout; THP IC50); format: cell-based; set-up: Seed THP-1 cells (25,000 cells/well) containing 1.0 μg/ml LPS in 40 μl of RPMI medium; host or cells: THP-1 cells
Summary of the method: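 IC50 from 4-parameter fit of resazurin fluorescence (100 μM, 1-2 hrs), reflecting surviving cells after pyroptosis. LPS-primed (1 μg/ml) THP-1 cells in FBS-free RPMI got compound for 3 hrs at 37° C (top 10 μM, half-log, 8 points), then nigericin 5 μM for 1 hr.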

T1 sequence (Q96P20 whole entry): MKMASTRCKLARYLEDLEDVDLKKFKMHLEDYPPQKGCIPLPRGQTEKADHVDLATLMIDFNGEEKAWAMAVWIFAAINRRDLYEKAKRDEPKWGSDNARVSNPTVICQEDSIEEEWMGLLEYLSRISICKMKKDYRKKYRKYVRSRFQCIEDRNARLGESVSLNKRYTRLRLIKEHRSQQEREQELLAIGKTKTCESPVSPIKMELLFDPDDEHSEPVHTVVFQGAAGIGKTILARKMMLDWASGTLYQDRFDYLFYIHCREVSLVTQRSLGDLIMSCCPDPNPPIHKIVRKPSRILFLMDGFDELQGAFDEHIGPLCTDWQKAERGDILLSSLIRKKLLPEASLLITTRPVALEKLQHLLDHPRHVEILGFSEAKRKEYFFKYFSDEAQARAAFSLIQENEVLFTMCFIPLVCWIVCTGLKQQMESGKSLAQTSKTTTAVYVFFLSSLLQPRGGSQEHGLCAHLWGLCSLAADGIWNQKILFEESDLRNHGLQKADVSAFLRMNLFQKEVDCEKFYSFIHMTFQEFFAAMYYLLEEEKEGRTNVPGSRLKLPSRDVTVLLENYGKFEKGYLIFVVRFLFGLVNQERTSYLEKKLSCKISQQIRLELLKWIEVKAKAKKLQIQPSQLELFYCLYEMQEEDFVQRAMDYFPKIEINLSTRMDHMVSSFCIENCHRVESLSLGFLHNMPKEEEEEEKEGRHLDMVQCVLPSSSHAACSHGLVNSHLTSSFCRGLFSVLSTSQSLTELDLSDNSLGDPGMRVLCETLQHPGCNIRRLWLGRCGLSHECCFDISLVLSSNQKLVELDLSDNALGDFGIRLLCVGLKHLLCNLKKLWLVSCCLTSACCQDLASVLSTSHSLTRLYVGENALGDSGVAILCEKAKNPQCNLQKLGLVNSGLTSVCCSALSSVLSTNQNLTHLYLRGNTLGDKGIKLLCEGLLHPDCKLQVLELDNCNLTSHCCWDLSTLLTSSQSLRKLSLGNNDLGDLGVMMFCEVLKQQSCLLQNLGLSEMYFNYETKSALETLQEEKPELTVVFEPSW

| IC50 [1] [nM] | IC50 [2] [nM] | Compound |
| --- | --- | --- |
| ≤ 1000 | ≤ 500 | CC(C)n1cc(S(=O)(=O)NC(=O)Nc2c(-c3ccncc3)cc(F)c3c2CCC3)ccc1=O [Example 91, N-((7-Fluoro-5-(pyridin-4-yl)-2,3-dihydro-1H-inden-4-yl)carbamoyl)-1-isopropyl-6-oxo-1,6-dihydropyridine-3-sulfonamide] |
| ≤ 1000 | ≤ 500 | COc1cc(-c2ccc3c(c2NC(=O)NS(=O)(=O)c2cnc(=O)n(C(C)C)c2)CCC3)ccn1 [Example 95, 1-Isopropyl-N-((5-(2-methoxypyridin-4-yl)-2,3-dihydro-1H-inden-4-yl)carbamoyl)-2-oxo-1,2-dihydropyrimidine-5-sulfonamide, sodium salt] |
| ≤ 1000 | ≤ 500 | CN(C)c1cncc(S(=O)(=O)NC(=O)Nc2c(-c3ccncc3)cc(F)c3c2CCC3)n1 [Example 105, 6-(Dimethylamino)-N-((7-fluoro-5-(pyridin-4-yl)-2,3-dihydro-1H-inden-4-yl)carbamoyl)pyrazine-2-sulfonamide] |
| ≤ 5000 | ≤ 500 | CC(C)c1cc(F)cc(-c2ccnc(C#N)c2)c1NC(=O)NS(=O)(=O)c1cnc(N(C)C)cn1 [Example 106, N-((2-(2-Cyanopyridin-4-yl)-4-fluoro-6-isopropylphenyl)carbamoyl)-5-(dimethylamino)pyrazine-2-sulfonamide] |
| ≤ 5000 | ≤ 500 | COc1cc(-c2ccc3c(c2NC(=O)NS(=O)(=O)c2cnc(N(C)C)cn2)CCC3)ccn1 [Example 108, 5-(Dimethylamino)-N-((5-(2-methoxypyridin-4-yl)-2,3-dihydro-1H-inden-4-yl)carbamoyl)pyrazine-2-sulfonamide] |
| ≤ 5000 | ≤ 500 | CN(C)c1cnc(S(=O)(=O)NC(=O)Nc2c(-c3ccncc3)cc(F)c3c2CCC3)cn1 [Example 109, 5-(Dimethylamino)-N-((7-fluoro-5-(pyridin-4-yl)-2,3-dihydro-1H-inden-4-yl)carbamoyl)pyrazine-2-sulfonamide] |
| ≤ 5000 | ≤ 500 | Cc1cc(C)nc(S(=O)(=O)NC(=O)Nc2c(-c3ccnc(C#N)c3)cc(F)cc2C(C)C)n1 [Example 114, N-((2-(2-Cyanopyridin-4-yl)-4-fluoro-6-isopropylphenyl)carbamoyl)-4,6-dimethylpyrimidine-2-sulfonamide] |
| ≤ 500 | ≤ 500 | COc1cc(-c2ccc3c(c2NC(=O)NS(=O)(=O)c2nc(C)cc(C)n2)CCC3)ccn1 [Example 116, N-((5-(2-Methoxypyridin-4-yl)-2,3-dihydro-1H-inden-4-yl)carbamoyl)-4,6-dimethylpyrimidine-2-sulfonamide] |
| ≤ 1000 | ≤ 500 | Cc1cc(C)nc(S(=O)(=O)NC(=O)Nc2c(-c3ccncc3)cc(F)c3c2CCC3)n1 [Example 117, N-((7-Fluoro-5-(pyridin-4-yl)-2,3-dihydro-1H-inden-4-yl)carbamoyl)-4,6-dimethylpyrimidine-2-sulfonamide] |
| ≤ 1000 | ≤ 500 | CC(C)c1cc(F)cc(-c2ccnc(C#N)c2)c1NC(=O)NS(=O)(=O)c1cc(N(C)C)cnn1 [Example 118, N-((2-(2-Cyanopyridin-4-yl)-4-fluoro-6-isopropylphenyl)carbamoyl)-5-(dimethylamino)pyridazine-3-sulfonamide] |
| ≤ 5000 | ≤ 500 | COc1cc(-c2cc(F)cc(C(C)C)c2NC(=O)NS(=O)(=O)c2cc(N(C)C)cnn2)ccn1 [Example 119, 5-(Dimethylamino)-N-((4-fluoro-2-isopropyl-6-(2-methoxypyridin-4-yl)phenyl)carbamoyl) pyridazine-3-sulfonamide] |
| ≤ 5000 | ≤ 500 | COc1cc(-c2ccc3c(c2NC(=O)NS(=O)(=O)c2cc(N(C)C)cnn2)CCC3)ccn1 [Example 120, 5-(Dimethylamino)-N-((5-(2-methoxypyridin-4-yl)-2,3-dihydro-1H-inden-4-yl)carbamoyl) pyridazine-3-sulfonamide] |
| ≤ 1000 | ≤ 500 | CN(C)c1cnnc(S(=O)(=O)NC(=O)Nc2c(-c3ccncc3)cc(F)c3c2CCC3)c1 [Example 121, 5-(Dimethylamino)-N-((7-fluoro-5-(pyridin-4-yl)-2,3-dihydro-1H-inden-4-yl)carbamoyl) pyridazine-3-sulfonamide] |
| ≤ 500 | ≤ 500 | COc1cc(-c2ccc3c(c2NC(=O)NS(=O)(=O)N(C)CC2CCCN2C)CCC3)ccn1 (centres unmarked) [Example 123, 3-(N-Methyl-N-((1-methylpyrrolidin-2-yl)methyl)sulfamoyl)-1-(5-(2-methoxypyridin-4-yl)-2,3-dihydro-1H-inden-4-yl)urea] |
| ≤ 500 | ≤ 500 | COc1cc(-c2cc(F)c3c(c2NC(=O)NS(=O)(=O)N(C)CC2CCCN2C)CCC3)ccn1 (centres unmarked) [Example 125, 3-(N-Methyl-N-((1-methylpyrrolidin-2-yl)methyl)sulfamoyl)-1-(7-fluoro-5-(2-methoxypyridin-4-yl)-2,3-dihydro-1H-inden-4-yl)urea] |
| ≤ 500 | ≤ 500 | COc1cc(-c2cc(F)c3c(c2NC(=O)NS(=O)(=O)N2C[C@H]4C[C@@H]2CN4C)CCC3)ccn1 [Example 126, (1R,4R)—N-((7-Fluoro-5-(2-methoxypyridin-4-yl)-2,3-dihydro-1H-inden-4-yl)carbamoyl)-5-methyl-2,5-diazabicyclo[2.2.1]heptane-2-sulfonamide] |
| ≤ 10000 | ≤ 1000 | O=C(Nc1c(-c2ccncc2)cc(F)c2c1CCC2)NS(=O)(=O)CCc1ccccc1 [Example 138, N-((7-Fluoro-5-(pyridin-4-yl)-2,3-dihydro-1H-inden-4-yl)carbamoyl)-2-phenylethanesulfonamide] |
| ≤ 1000 | ≤ 500 | COc1cc(-c2ccc3c(c2NC(=O)NS(=O)(=O)c2cnn(C4CC4)c2)CCC3)ccn1 [Example 145, 1-Cyclopropyl-N-((5-(2-methoxypyridin-4-yl)-2,3-dihydro-1H-inden-4-yl)carbamoyl)-1H-pyrazole-4-sulfonamide] |
| ≤ 500 | ≤ 500 | CCN(CC)CCCS(=O)(=O)NC(=O)Nc1c(-c2ccncc2)cc(F)c2c1CCC2 [Example 149, 3-(Diethylamino)-N-((7-fluoro-5-(pyridin-4-yl)-2,3-dihydro-1H-inden-4-yl)carbamoyl)propane-1-sulfonamide] |
| ≤ 5000 | ≤ 500 | CCN(CCCS(=O)(=O)NC(=O)Nc1c(-c2ccncc2)cc(F)c2c1CCC2)Cc1ccccc1 [Example 153, 3-(Benzyl(ethyl)amino)-N-((7-fluoro-5-(pyridin-4-yl)-2,3-dihydro-1H-inden-4-yl)carbamoyl)propane-1-sulfonamide] |
| ≤ 500 | ≤ 500 | COc1cc(-c2cc(F)cc(C(C)C)c2NC(=O)NS(=O)(=O)CC2CCN(C)C2)ccn1 (centres unmarked) [Example 163, N-((4-Fluoro-2-isopropyl-6-(2-methoxypyridin-4-yl)phenyl)carbamoyl)-1-(1-methylpyrrolidin-3-yl) methanesulfonamide] |
| ≤ 500 | ≤ 500 | COc1cc(-c2ccc3c(c2NC(=O)NS(=O)(=O)CC2CCN(C)C2)CCC3)ccn1 (centres unmarked) [Example 164, N-((5-(2-Methoxypyridin-4-yl)-2,3-dihydro-1H-inden-4-yl)carbamoyl)-1-(1-methylpyrrolidin-3-yl) methanesulfonamide] |
| ≤ 10000 | ≤ 5000 | COCCN(CCOC)C(=O)c1cc(S(=O)(=O)NC(=O)Nc2c(-c3ccnc(OC(C)C)c3)cc(F)cc2C(C)C)nn1C [Example 166, 3-(N-((4-Fluoro-2-(2-isopropoxypyridin-4-yl)-6-isopropyl-phenyl)carbamoyl)sulfamoyl)-N,N-bis(2-methoxyethyl)-1-methyl-1H-pyrazole-5-carboxamide, sodium salt] |
| ≤ 500 | ≤ 500 | COCCN(CCOC)C(=O)c1cc(S(=O)(=O)NC(=O)Nc2c(-c3ccnc(OC)c3)ccc3c2CCC3)nn1C [Example 167, N,N-Bis(2-methoxyethyl)-3-(N-((5-(2-methoxypyridin-4-yl)-2,3-dihydro-1H-inden-4-yl)carbamoyl)sulfamoyl)-1-methyl-1H-pyrazole-5-carboxamide, sodium salt] |
| ≤ 5000 | ≤ 500 | CC(C)Oc1cc(-c2cc(F)cc(C(C)C)c2NC(=O)NS(=O)(=O)c2cc(C(=O)N(C)C)n(C)n2)ccn1 [Example 168, 3-(N-((4-Fluoro-2-(2-isopropoxypyridin-4-yl)-6-isopropyl-phenyl)carbamoyl)sulfamoyl)-N,N,1-trimethyl-1H-pyrazole-5-carboxamide, sodium salt] |

From patent US20200361895A1, “NOVEL SULFONAMIDE CARBOXAMIDE COMPOUNDS” (Inflazome Limited, priority 2017, published 2020)
